Experimental data published in patent publication US12043630B2, “Polymorphic form of TG02 for treating cancer” (Cothera Bioscience, Inc., priority 2017, dated 2024).
Where a name gives a salt, the structure may show the parent alone. One block for each compound: values may come before it.

Columns and labels:
[1] = Thermodynamic Aqueous Solubility; format: physicochemical; settings: aqueous media; for Thermodynamic solubility: 25° C., 24 hours
Protocol: Aqueous solubility was determined by suspending sufficient compound in relevant media to give a maximum final concentration of ≥10 mg/ml of the parent freeform of the compound. The suspension was equilibrated at 25° C., on a Heidolph plate shaker set to 750 rpm for 24 hours. The pH of the saturated solution was then measured and the suspension filtered through a glass fibre C filter (particle retention 1.2 μm) and diluted appropriately. Quantitation was by HPLC with reference to a standard solution of approximately 0.15 mg/ml in DMSO. Different volumes of the standard, diluted and undiluted sample solutions were injected. The solubility was calculated using the peak areas determined by integration of the peak found at the same retention time as the principal peak in the standard injection.

[2] = Gravimetric Vapour Sorption (GVS); format: physicochemical; settings: for Hygroscopicity by GVS analysis / GVS uptake: 25° C.; for GVS uptake: between 0-90% RH
Protocol: Sorption isotherms were obtained using a SMS DVS Intrinsic moisture sorption analyser, controlled by DVS Intrinsic Control software. The sample temperature was maintained at 25° C. by the instrument controls. The humidity was controlled by mixing streams of dry and wet nitrogen, with a total flow rate of 200 ml/min. The relative humidity was measured by a calibrated Rotronic probe (dynamic range of 1.0-100% RH), located near the sample. The weight change, (mass relaxation) of the sample as a function of % RH was constantly monitored by a microbalance (accuracy±0.005 mg).
Typically, 5-30 mg of sample was placed in a tared mesh stainless steel basket under ambient conditions. The sample was loaded and unloaded at 40% RH and 25° C. (typical room conditions). A moisture sorption isotherm was performed as outlined below (2 scans per complete cycle). The standard isotherm was performed at 25° C. at 10% RH intervals over a 0-90% RH range. Typically, a double cycle (4 scans) was carried out. Data analysis was carried out within Microsoft Excel using the DVS Analysis Suite.
The sample was recovered after completion of the isotherm and re-analysed by XRPD.

[3] = Storage at elevated temperature and relative humidity, re-analysis by XRPD; format: physicochemical; settings: for XRPD following storage at elevated temperatures and relative humidity: 28 days
Source text: X-ray Powder Diffraction (XRPD or PXRD) diffractograms were collected on a Bruker AXS C2 GADDS, Bruker AXS DB Advance, PANalytical Empyrean, or similar diffractometer using Cu Kα radiation.
Proton NMR was consistent with the proposed structure. However, as the methylene protons of the citric acid overlapped with the D6-DMSO reference peak, the stoichiometric equivalence of citrate acid is slightly offset. […] Differential scanning calorimetry thermal events included a single broad endotherm at 204.5° C. (366.9 J/g).
Proton NMR analysis was consistent with the proposed structure, although there was overlap of the methylene protons of the citrate and the D6-DMSO reference peak. […] (327.7 J/g).
These additional peaks remained throughout the 28 days storage period. This may be caused by dehydration of the hydrate. Proton NMR analysis was consistent with the proposed structure, although there was overlap of the methylene protons of the citrate and the D6-DMSO reference peak. […] Differential scanning calorimetry consisted of a broad, asymmetrical endotherm between 25-115° C. (70.2 J/g) followed by a large endotherm at 186.0° C. (313.4 J/g), possibly due to the sample melt and dissolution of the salt. […] Water content was determined by Karl Fischer analysis to be 3.3%, equating to 1 molar equivalent of water.

[4] = system: progenitor cells derived from acute myeloid leukemia (AML) and polycythemia vera patients; settings: cited from earlier work
CDK1 = CDK1 (Homo sapiens, UniProt P06493); settings: cited from earlier work
Chain of CDK1 (P06493 whole entry): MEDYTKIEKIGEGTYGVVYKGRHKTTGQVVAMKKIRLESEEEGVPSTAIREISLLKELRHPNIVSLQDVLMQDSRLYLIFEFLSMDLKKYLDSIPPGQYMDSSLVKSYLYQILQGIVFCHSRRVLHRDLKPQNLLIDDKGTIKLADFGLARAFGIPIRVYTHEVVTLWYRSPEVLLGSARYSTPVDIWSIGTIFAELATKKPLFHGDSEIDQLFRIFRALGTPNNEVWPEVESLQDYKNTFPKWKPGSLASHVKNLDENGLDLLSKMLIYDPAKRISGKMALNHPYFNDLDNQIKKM
Chain of CDK1 (P14635 whole entry partner): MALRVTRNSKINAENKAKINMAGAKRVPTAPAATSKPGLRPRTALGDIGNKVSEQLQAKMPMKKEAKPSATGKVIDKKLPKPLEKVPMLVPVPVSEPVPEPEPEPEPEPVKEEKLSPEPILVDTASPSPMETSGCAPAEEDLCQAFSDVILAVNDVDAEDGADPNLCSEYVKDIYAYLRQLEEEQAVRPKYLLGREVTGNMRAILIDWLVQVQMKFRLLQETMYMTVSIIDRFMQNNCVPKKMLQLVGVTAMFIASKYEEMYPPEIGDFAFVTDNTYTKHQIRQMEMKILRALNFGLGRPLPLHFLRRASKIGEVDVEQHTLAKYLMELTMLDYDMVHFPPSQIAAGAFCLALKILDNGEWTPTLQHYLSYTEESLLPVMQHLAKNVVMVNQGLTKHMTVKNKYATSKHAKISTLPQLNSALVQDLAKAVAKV

CDK7 = CDK7 (Homo sapiens, UniProt P50613); settings: cited from earlier work
Chain of CDK7 (P50613 whole entry): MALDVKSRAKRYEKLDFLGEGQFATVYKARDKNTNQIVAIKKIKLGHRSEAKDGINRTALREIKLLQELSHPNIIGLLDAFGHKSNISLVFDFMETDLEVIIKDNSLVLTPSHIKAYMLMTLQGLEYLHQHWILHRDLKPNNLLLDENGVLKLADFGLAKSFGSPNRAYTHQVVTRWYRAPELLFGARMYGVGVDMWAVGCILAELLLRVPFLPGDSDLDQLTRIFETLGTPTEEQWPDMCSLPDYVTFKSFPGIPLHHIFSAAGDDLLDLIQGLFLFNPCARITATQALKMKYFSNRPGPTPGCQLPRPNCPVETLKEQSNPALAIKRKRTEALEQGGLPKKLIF
Chain of CDK7 (P51946 whole entry partner): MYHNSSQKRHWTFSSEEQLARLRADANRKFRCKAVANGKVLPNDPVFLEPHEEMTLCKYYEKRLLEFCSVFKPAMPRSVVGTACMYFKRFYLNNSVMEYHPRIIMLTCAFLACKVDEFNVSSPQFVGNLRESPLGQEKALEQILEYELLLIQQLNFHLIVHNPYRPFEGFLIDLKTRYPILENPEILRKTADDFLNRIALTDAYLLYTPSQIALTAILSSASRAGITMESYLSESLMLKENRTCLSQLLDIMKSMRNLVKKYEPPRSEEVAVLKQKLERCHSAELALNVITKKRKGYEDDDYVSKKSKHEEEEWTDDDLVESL
Chain of CDK7 (P51948 whole entry partner): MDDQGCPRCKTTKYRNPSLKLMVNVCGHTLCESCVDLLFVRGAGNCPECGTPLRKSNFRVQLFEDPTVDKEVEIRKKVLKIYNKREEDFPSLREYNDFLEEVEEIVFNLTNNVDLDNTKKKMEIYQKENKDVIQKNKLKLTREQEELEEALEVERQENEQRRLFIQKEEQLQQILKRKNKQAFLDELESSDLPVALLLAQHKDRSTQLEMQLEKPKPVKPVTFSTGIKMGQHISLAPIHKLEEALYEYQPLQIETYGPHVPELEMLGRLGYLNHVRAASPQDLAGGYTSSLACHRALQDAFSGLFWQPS

FLT3 = molecular target: T1, FLT3 (Homo sapiens, UniProt P36888); settings: cited from earlier work
T1 sequence (P36888 27-993): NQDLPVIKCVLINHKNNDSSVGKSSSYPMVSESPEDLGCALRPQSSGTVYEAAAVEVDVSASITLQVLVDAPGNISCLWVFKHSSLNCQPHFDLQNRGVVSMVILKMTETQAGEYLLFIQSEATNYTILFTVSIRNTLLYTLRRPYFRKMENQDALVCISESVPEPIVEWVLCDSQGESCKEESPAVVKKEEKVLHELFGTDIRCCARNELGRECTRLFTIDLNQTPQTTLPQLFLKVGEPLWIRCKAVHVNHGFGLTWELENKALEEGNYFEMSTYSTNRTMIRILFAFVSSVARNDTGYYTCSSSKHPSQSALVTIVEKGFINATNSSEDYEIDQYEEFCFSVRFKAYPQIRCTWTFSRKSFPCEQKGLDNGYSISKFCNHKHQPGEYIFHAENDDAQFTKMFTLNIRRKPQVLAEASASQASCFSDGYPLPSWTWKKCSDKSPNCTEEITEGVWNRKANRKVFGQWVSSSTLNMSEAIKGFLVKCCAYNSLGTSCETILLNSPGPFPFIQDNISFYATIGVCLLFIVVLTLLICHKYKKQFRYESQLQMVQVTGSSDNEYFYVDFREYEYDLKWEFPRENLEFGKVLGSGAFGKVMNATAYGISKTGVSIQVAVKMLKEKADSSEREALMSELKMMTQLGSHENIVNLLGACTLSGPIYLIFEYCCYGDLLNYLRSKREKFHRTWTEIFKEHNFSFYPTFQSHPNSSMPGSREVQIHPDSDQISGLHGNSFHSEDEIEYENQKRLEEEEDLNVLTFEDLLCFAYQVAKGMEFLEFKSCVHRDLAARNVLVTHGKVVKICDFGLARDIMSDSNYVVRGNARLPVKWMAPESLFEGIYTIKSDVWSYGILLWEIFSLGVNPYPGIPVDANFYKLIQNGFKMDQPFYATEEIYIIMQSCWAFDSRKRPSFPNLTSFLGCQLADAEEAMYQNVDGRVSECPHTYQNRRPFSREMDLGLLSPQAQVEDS

JAK2 = JAK2 (Homo sapiens, UniProt O60674); settings: cited from earlier work
Chain of JAK2 (O60674 whole entry): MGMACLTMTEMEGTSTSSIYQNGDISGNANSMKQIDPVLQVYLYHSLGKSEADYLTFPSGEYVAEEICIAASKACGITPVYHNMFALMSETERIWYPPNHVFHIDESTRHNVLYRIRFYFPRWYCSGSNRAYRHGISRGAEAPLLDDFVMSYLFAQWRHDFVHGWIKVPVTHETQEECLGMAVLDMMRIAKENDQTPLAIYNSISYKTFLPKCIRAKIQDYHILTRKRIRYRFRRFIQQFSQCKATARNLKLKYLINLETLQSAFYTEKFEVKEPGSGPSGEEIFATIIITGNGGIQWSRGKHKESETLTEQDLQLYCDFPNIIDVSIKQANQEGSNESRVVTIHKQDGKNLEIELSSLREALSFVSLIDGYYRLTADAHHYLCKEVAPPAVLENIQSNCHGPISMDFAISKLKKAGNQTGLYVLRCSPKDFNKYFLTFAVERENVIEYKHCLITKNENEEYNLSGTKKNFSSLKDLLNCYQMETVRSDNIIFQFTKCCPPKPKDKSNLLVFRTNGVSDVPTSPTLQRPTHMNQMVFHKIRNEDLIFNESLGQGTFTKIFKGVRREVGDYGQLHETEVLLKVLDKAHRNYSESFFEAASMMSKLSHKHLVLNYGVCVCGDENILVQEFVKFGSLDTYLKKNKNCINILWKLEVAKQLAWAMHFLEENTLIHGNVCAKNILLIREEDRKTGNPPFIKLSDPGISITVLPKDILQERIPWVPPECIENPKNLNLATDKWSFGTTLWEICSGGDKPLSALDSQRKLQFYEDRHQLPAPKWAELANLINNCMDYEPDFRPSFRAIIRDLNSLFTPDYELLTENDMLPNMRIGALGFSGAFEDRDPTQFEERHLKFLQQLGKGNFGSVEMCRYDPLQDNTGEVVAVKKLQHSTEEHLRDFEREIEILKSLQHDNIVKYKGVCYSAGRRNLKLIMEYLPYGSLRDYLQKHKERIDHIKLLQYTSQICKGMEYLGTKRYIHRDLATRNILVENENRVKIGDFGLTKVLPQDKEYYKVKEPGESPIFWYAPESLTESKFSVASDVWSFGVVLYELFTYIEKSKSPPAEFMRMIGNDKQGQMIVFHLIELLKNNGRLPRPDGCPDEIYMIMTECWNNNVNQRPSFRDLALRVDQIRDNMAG

CDK5 = CDK5 (Homo sapiens, UniProt Q00535); settings: cited from earlier work
Chain of CDK5 (Q00535 whole entry): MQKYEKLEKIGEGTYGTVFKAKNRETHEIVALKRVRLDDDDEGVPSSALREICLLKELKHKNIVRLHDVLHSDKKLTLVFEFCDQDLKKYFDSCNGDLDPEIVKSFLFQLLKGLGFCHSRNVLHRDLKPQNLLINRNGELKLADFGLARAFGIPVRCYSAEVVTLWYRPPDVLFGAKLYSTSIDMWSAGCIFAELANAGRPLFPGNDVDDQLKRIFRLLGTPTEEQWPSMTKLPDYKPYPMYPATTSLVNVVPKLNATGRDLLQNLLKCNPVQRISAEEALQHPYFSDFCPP
Chain of CDK5 (Q15078 whole entry partner): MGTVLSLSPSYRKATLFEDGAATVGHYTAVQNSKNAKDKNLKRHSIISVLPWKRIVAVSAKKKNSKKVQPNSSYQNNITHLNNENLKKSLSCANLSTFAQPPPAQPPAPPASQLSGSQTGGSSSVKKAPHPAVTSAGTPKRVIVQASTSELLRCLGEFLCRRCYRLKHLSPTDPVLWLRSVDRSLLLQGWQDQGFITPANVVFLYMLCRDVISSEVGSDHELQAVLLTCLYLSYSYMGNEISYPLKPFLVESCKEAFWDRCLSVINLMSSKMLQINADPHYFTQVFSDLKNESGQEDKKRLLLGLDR

[5] = system: signaling pathways downstream of CDKs, JAK2 and FLT3 in cancer cells; settings: cited from earlier work
tumor cell lines = settings: cited from earlier work
CDK2 = CDK2 (Homo sapiens, UniProt P24941); settings: cited from earlier work
CDK9 = CDK9 (Homo sapiens, UniProt P50750); settings: cited from earlier work
Chain of CDK9 (P50750 whole entry): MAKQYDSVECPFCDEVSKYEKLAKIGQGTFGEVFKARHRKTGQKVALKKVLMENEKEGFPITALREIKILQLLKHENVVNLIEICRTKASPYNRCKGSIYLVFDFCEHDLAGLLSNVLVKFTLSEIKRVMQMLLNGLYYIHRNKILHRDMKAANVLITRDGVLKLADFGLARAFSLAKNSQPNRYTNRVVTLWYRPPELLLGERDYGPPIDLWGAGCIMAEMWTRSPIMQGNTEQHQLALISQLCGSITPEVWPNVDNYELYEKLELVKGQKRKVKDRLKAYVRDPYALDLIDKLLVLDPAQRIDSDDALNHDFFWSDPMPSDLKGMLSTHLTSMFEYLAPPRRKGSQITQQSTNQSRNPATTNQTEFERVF
Chain of CDK9 (O60563 whole entry partner): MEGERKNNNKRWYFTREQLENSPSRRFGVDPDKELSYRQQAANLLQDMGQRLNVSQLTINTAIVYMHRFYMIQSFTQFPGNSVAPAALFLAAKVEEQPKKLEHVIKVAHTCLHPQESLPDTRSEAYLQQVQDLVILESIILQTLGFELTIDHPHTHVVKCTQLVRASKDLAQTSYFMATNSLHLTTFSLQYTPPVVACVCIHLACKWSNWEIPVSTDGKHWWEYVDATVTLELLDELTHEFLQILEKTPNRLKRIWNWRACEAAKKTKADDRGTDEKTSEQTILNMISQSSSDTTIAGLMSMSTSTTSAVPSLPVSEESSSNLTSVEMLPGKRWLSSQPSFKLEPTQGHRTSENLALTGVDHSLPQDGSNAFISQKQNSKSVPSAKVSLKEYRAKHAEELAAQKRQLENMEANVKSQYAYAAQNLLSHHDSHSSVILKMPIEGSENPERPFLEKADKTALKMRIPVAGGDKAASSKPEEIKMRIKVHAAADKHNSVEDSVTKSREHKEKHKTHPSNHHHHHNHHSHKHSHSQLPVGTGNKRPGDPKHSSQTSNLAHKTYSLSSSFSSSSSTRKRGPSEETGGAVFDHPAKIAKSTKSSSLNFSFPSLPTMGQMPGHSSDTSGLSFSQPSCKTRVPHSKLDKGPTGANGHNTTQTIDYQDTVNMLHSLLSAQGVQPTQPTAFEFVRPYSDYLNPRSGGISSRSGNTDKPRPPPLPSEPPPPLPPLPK

[6] = Slurry of mixed TG02 citrate polymorphs in solvents, XRPD of recovered solids (Method B); format: physicochemical; settings: 4 days
Protocol: Method B: A homogeneous mixture of TG02 Form X (citrate), TG02 Citrate Pattern 1 of U.S. Pat. No. 9,120,815, and TG02 Citrate Pattern 2 of U.S. Pat. No. 9,120,815 was treated with solvent (20 vol.) and agitated for 4 days at different temperatures (5° C., 25° C., and 50° C.). The recovered solids were air dried and analysed by XRPD.

[7] = 40° C./75% RH, 25° C./97% RH and 60° C./ambient RH

Thermodynamic solubility [1]: 330 µg/mL
XRPD following GVS analysis [2]: remained unchanged by XRPD
Hygroscopicity by GVS analysis [2]: slightly-hygroscopic
GVS uptake [2]: 1.0%
GVS maximum hysteresis ([2]; between 40-50% RH): 0.2%
XRPD following storage at elevated temperatures and relative humidity [3, 7]: remained unchanged by XRPD
SMILES: CN1C/C=C/CCOc2cccc(c2)-c2ccnc(n2)Nc2cccc(c2)C1 [TG02 Citrate Pattern 1, (16E)-14-methyl-20-oxa-5,7,14,26-tetraazatetracyclo[19.3.1.1(2,6).1(8,12)]heptacosa-1(25),2(26),3,5,8(27),9,11,16,21,23-decaene]
XRPD following thermodynamic solubility analysis [1]: form change from TG02 Citrate Pattern 1 to TG02 Citrate Pattern 2

SMILES: CN1C/C=C/CCOc2cccc(c2)-c2ccnc(n2)Nc2cccc(c2)C1 [TG02, (16E)-14-methyl-20-oxa-5,7,14,26-tetraazatetracyclo[19.3.1.1(2,6).1(8,12)]heptacosa-1(25),2(26),3,5,8(27),9,11,16,21,23-decaene]
Sensitivity of primary cultures to TG02 [4]: very sensitive
Inhibition of CDK1 (CDK1): inhibits
Inhibition of CDK7 (CDK7): inhibits
Inhibition of FLT3 (FLT3): inhibits
Inhibition of JAK2 (JAK2): inhibits
Inhibition of CDK5 (CDK5): inhibits
Inhibition of signaling pathways downstream of CDKs, JAK2 and FLT3 [5]: dose-dependently inhibits
Anti-proliferative activity (tumor cell lines; broad range of tumor cell lines): anti-proliferative
Cell cycle arrest and apoptosis (tumor cell lines; tumor cell lines): inducing Gi cell cycle arrest and apoptosis
Inhibition of CDK2 (CDK2): inhibits
Inhibition of CDK9 (CDK9): inhibits

Thermodynamic solubility [1]: 640 µg/mL
XRPD following GVS analysis [2]: remained unchanged by XRPD
Hygroscopicity by GVS analysis [2]: non-hygroscopic
GVS uptake [2]: 0.13%
GVS maximum hysteresis ([2]; between 40-60% RH): 0.04%
XRPD following storage at elevated temperatures and relative humidity [3, 7]: remained unchanged by XRPD
SMILES: CN1C/C=C/CCOc2cccc(c2)-c2ccnc(n2)Nc2cccc(c2)C1 [Form X (citrate), (16E)-14-methyl-20-oxa-5,7,14,26-tetraazatetracyclo[19.3.1.1(2,6).1(8,12)]heptacosa-1(25),2(26),3,5,8(27),9,11,16,21,23-decaene]

XRPD following thermodynamic solubility analysis [1]: remained unchanged by XRPD
Thermodynamic solubility [1]: 230 µg/mL
XRPD following GVS analysis [2]: remained unchanged by XRPD
Hygroscopicity by GVS analysis [2]: hygroscopic
GVS uptake [2]: 3.84%
GVS maximum hysteresis ([2]; between 10-30% RH): 1.4%
XRPD following storage at elevated temperatures and relative humidity ([3]; 40° C./75% RH and 25° C./97% RH): remained unchanged by XRPD
SMILES: CN1C/C=C/CCOc2cccc(c2)-c2ccnc(n2)Nc2cccc(c2)C1 [TG02 Citrate Pattern 2, (16E)-14-methyl-20-oxa-5,7,14,26-tetraazatetracyclo[19.3.1.1(2,6).1(8,12)]heptacosa-1(25),2(26),3,5,8(27),9,11,16,21,23-decaene]
XRPD following storage ([3]; 60° C./ambient RH, peaks remained throughout 28 days): additional peaks being present in the XRPD diffractogram after 7 days

TG02 (Citrate) Polymorph recovered (XRPD) ([6]; Acetone 20 vol., 5° C.): Form X
TG02 (Citrate) Polymorph recovered (XRPD) ([6]; Acetone 20 vol., 25° C.): Form X
TG02 (Citrate) Polymorph recovered (XRPD) ([6]; Acetone 20 vol., 50° C.): Form X
TG02 (Citrate) Polymorph recovered (XRPD) ([6]; Acetone:H2O (9:1) 20 vol., 5° C.): Pattern 2
TG02 (Citrate) Polymorph recovered (XRPD) ([6]; Acetone:H2O (9:1) 20 vol., 25° C.): Pattern 2
TG02 (Citrate) Polymorph recovered (XRPD) ([6]; Acetone:H2O (9:1) 20 vol., 50° C.): Pattern 2
TG02 (Citrate) Polymorph recovered (XRPD) ([6]; DCM:H2O (9:1) 20 vol., 5° C.): Pattern 2 + Form X
TG02 (Citrate) Polymorph recovered (XRPD) ([6]; DCM:H2O (9:1) 20 vol., 25° C.): Pattern 2
TG02 (Citrate) Polymorph recovered (XRPD) ([6]; DCM:H2O (9:1) 20 vol., 50° C.): Form X
TG02 (Citrate) Polymorph recovered (XRPD) ([6]; EtOAc 20 vol., 5° C.): Pattern 2 + Form X
TG02 (Citrate) Polymorph recovered (XRPD) ([6]; EtOAc 20 vol., 25° C.): Form X
TG02 (Citrate) Polymorph recovered (XRPD) ([6]; EtOAc 20 vol., 50° C.): Form X
TG02 (Citrate) Polymorph recovered (XRPD) ([6]; H2O 20 vol., 5° C.): Pattern 2
TG02 (Citrate) Polymorph recovered (XRPD) ([6]; H2O 20 vol., 25° C.): Pattern 2
TG02 (Citrate) Polymorph recovered (XRPD) ([6]; H2O 20 vol., 50° C.): Pattern 2
TG02 (Citrate) Polymorph recovered (XRPD) ([6]; IPA 20 vol., 5° C.): Form X
TG02 (Citrate) Polymorph recovered (XRPD) ([6]; IPA 20 vol., 25° C.): Form X
TG02 (Citrate) Polymorph recovered (XRPD) ([6]; IPA 20 vol., 50° C.): Form X
TG02 (Citrate) Polymorph recovered (XRPD) ([6]; TBME 20 vol., 5° C.): Pattern 2 + Form X
TG02 (Citrate) Polymorph recovered (XRPD) ([6]; TBME 20 vol., 25° C.): Pattern 2 + Form X
TG02 (Citrate) Polymorph recovered (XRPD) ([6]; TBME 20 vol., 50° C.): Form X
TG02 (Citrate) Polymorph recovered (XRPD) ([6]; THF:H2O (9:1) 20 vol., 5° C.): Pattern 2
TG02 (Citrate) Polymorph recovered (XRPD) ([6]; THF:H2O (9:1) 20 vol., 25° C.): Pattern 2
TG02 (Citrate) Polymorph recovered (XRPD) ([6]; THF:H2O (9:1) 20 vol., 50° C.): Pattern 2
SMILES: CN1C/C=C/CCOc2cccc(c2)-c2ccnc(n2)Nc2cccc(c2)C1 [TG02 (Citrate)]
